Results from patent US10709707B2, “Methods of treating ocular conditions” (Oyster Point Pharma, Inc., priority 2016, dated 2020).
Where “and” joins values, the source holds several entries; their conditions need not be identical. Equal entries are not always repeated. Entries after “also recorded” stand apart in the source; their conditions may differ. Where two headings read alike, the source gives them in different places.

Key:
[1] = clinical studies with oral Compound 1; type: in vivo, human
Description: The oral form of Compound 1-A, Compound 1, has been studied in several clinical trials. A total of 108 human subjects have received Compound 1: 69 healthy volunteers in Phase 1 studies, 23 subjects in a Phase 1b gastroparesis study, and 16 subjects with constipation predominant irritable bowel syndrome (IBS-C) in a Phase 2a study. Subjects were exposed to doses of Compound 1 ranging from 5 mg through and including 200 mg.

mouse lymphoma cells = assay: micronucleus test in mouse lymphoma cells; type: cell-based; settings: in vitro
Description: (§1) Compound 1 was negative for mutagenicity in both in vitro bioassays—including an Ames test, a micronucleus test in mouse lymphoma cells, and a chromosome aberration assay using cultured human peripheral blood lymphocytes—and an in vivo rat bone marrow micronucleus test.

a4b4 = a4b4 (Homo sapiens, UniProt P30926+P43681); assay: Receptor binding a4b4
Sequence of a4b4 (P43681 29-627 limits assumed): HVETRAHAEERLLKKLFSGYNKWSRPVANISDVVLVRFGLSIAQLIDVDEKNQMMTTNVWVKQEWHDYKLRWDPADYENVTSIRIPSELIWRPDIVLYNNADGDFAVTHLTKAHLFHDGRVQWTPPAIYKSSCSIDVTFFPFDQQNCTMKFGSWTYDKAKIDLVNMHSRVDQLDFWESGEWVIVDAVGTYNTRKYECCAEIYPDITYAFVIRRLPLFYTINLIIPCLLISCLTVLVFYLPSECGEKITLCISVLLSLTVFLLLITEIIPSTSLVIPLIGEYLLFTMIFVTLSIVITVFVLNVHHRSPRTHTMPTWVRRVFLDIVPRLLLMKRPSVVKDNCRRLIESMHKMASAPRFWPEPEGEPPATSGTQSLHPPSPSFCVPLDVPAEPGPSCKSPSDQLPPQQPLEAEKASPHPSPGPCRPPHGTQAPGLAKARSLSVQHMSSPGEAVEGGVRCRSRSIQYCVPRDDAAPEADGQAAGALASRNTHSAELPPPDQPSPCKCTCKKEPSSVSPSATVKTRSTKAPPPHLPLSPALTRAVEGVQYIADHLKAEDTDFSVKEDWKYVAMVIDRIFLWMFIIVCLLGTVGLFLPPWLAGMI
Sequence of a4b4 (P30926 22-498): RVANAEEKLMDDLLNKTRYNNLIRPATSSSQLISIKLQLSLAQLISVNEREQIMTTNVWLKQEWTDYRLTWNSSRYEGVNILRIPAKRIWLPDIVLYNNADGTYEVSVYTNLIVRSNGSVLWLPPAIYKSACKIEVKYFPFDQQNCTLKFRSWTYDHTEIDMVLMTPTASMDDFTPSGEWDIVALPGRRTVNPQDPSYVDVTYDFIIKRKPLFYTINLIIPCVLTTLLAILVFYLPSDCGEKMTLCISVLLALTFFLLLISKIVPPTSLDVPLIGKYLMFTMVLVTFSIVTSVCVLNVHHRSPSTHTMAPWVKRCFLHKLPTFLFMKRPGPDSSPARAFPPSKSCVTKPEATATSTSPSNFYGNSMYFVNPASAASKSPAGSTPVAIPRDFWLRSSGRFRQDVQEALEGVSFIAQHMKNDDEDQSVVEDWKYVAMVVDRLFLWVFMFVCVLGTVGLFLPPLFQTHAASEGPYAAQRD

[2] = biological target: T1, rat ganglion receptors α3β4 (Rattus norvegicus, UniProt P04757+P12392); assay: Receptor function ganglionic receptors (rat), PC-12 cells; type: cell-based; settings: for Emax: PC-12, Rat ganglion-type (a3b4*)
T1 construct: endogenous in cells; host or cells: PC-12 cells (per the earlier reading)
T1 sequence (P04757 26-499): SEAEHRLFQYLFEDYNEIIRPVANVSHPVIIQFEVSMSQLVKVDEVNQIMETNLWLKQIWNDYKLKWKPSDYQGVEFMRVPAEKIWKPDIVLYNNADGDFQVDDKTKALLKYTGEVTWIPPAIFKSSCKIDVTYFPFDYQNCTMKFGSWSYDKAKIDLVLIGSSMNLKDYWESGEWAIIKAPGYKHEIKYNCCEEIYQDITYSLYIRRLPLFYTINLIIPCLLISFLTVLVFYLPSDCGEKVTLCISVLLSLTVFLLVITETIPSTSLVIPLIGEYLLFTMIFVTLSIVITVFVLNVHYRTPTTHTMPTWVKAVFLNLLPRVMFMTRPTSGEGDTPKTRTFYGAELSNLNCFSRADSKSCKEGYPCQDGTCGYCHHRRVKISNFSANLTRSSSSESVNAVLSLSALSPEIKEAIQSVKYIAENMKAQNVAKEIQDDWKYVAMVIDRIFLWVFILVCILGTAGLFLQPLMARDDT
T1 sequence (P12392 21-495): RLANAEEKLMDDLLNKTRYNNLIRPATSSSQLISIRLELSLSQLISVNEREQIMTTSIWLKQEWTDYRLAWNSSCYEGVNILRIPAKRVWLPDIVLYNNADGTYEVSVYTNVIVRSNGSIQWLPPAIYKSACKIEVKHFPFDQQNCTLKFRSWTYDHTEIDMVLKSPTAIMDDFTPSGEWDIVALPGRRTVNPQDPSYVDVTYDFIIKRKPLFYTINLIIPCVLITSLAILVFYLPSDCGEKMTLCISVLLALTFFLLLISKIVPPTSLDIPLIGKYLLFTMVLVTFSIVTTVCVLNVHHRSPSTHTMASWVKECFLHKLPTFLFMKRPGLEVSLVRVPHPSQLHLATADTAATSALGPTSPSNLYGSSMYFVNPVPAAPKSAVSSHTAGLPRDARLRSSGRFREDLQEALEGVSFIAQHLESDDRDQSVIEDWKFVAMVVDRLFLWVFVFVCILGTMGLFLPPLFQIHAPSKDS

[3] = 2-week and 13-week repeated dose TK studies, rat; type: in vivo
Description: In 2-week and 13-week repeated dose TK studies in rat, animals were dosed orally at 30, 100 or 200 mg/kg/day (2-week study) or at 30, 100 or 300 mg/kg/day (13-week study). […] In the 2-week study, there was a 1.2 to 2.2-fold increase in exposure from Day 1 to 15. In the 13-week study, there was a general increase from Day 1 to 29 and roughly equivalent exposure from Day 29 to 91.

respiratory parameters = assay: Respiratory safety pharmacology; type: in vivo, Rat: Sprague-Dawley
[4] = biological target: remaining muscarinic subtypes; assay: Follow-up dose response binding assay (CEREP)
[5] = test system: muscarinic (non-selective) sites; assay: In vitro binding (off-target receptors) at 10 μM; settings: hemigalactarate salt
[6] = test system: arterial pressure, heart rate, ECG, body temperature; assay: Cardiovascular safety, conscious telemetered monkeys po; type: in vivo, Monkey: Cynomologous; settings: single oral doses 3, 10, 30 mg/kg
human α3β2 = biological target: T2, human α3β2 (Homo sapiens, UniProt P17787+P32297); assay: Receptor binding α3β2, recombinant human receptors in HEK cells; settings: [3H]-S-nicotine, human α3β2 expressed in HEK cells
T2 construct: expressed in transfected cells
T2 sequence (P32297 32-505): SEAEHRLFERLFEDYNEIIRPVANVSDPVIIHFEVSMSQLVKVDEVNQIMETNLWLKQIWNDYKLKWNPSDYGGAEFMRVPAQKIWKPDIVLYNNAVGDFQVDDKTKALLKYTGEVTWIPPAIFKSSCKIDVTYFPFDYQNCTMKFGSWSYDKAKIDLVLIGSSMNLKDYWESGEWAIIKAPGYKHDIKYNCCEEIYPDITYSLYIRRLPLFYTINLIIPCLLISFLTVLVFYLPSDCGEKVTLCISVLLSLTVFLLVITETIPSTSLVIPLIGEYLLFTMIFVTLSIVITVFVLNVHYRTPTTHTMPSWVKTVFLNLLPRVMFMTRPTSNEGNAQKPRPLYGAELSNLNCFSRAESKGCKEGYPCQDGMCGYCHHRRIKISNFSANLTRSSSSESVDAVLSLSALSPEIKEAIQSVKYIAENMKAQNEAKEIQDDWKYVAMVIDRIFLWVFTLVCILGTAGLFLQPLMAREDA
T2 sequence (P17787 26-502): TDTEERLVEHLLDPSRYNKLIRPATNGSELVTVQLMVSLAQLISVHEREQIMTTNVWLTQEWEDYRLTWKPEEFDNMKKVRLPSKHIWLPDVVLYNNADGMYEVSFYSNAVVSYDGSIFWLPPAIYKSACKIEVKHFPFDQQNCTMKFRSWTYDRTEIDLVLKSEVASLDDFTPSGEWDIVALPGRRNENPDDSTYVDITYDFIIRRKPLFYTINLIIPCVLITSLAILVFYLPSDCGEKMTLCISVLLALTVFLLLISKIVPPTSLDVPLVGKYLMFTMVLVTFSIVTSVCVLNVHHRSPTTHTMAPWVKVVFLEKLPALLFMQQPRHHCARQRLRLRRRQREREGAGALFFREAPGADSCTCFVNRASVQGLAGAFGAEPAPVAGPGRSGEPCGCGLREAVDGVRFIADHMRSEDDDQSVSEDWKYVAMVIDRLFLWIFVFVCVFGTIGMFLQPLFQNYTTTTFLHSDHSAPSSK

[7] = biological target: T3, α4β2 nicotinic acetylcholine receptor (Rattus norvegicus, UniProt P09483+P12390); assay: Receptor binding α4β2, inhibition of [3H]-(S)-nicotine binding, rat brain membranes
T3 construct: from tissue; host or cells: rat brain cortical membranes
T3 sequence (P09483 31-630): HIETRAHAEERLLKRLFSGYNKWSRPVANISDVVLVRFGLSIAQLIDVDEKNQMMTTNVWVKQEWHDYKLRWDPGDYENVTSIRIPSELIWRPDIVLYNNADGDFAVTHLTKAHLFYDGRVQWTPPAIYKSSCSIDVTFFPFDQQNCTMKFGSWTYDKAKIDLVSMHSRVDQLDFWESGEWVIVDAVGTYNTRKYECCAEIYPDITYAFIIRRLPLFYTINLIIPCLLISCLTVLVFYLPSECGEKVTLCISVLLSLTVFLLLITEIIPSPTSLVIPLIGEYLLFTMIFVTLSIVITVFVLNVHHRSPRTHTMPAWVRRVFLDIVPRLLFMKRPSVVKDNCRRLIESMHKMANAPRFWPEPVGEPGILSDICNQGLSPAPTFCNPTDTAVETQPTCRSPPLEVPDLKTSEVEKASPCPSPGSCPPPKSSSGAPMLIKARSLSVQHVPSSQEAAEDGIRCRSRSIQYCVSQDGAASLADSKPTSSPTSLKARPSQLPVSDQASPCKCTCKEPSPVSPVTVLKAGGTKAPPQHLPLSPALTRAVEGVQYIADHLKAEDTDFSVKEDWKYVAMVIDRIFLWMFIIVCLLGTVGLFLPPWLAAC
T3 sequence (P12390 25-500): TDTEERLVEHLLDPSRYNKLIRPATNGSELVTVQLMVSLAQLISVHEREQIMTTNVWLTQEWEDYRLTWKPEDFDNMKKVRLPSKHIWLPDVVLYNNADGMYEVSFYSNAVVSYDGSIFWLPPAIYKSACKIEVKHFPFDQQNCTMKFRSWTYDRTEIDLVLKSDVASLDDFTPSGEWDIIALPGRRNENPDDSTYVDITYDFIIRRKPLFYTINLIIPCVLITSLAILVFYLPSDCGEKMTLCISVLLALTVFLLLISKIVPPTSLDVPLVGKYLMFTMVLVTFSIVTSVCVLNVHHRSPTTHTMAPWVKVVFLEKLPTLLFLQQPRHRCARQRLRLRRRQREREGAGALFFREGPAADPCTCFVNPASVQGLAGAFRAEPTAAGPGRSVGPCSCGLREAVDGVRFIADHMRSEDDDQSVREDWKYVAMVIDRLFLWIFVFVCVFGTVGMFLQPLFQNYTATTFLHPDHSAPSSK

human α7 = biological target: T4, human α7 (Homo sapiens, UniProt P36544); assay: Receptor binding α7, recombinant human receptors in HEK cells; settings: human α7 expressed in HEK cells
T4 construct: expressed in transfected cells; host or cells: HEK cells (per the earlier reading)

behavioral sensitization = assay: CNS safety pharmacology, behavioral sensitization by motor activity; type: in vivo, Rat: Sprague-Dawley
[8] = biological target: high and low sensitivity alpha4beta2-containing NNR subtypes (Homo sapiens, UniProt P17787+P43681); assay: Electrophysiology studies; type: cell-based
Sequence of high and low sensitivity alpha4beta2-containing NNR subtypes (P43681 29-627 limits assumed): as the sequence (P43681 29-627 limits assumed) above
Sequence of high and low sensitivity alpha4beta2-containing NNR subtypes (P17787 26-502): as the sequence (P17787 26-502) above
Description: It is readily absorbed following oral administration and has favorable pharmacokinetics.

[9] = CNS safety pharmacology, body temperature; type: in vivo, Rat: Sprague-Dawley; settings: po, doses up to and including 100 mg/kg
[10] = biological target: T5, α7 nicotinic acetylcholine receptor (Rattus norvegicus, UniProt Q05941); assay: Receptor binding α7, inhibition of [3H]-MLA binding, rat brain membranes
T5 construct: from tissue; host or cells: rat brain membranes (per the earlier reading)
T5 sequence (Q05941 23-502): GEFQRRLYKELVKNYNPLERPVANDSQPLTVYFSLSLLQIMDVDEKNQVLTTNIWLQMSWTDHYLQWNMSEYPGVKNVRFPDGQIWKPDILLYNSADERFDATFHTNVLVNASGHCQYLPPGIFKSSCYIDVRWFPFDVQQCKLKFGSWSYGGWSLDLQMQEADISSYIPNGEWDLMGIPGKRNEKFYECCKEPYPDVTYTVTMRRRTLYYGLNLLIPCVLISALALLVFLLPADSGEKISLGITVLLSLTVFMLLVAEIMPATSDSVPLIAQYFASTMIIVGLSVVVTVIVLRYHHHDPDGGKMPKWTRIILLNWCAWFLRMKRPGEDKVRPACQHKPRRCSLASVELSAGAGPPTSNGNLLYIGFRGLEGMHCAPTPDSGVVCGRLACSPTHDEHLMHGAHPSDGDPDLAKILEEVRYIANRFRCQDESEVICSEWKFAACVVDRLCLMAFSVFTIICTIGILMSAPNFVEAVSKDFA

[11] = Solubility in aqueous solutions; type: physicochemical
[12] = test system: neuronal nicotinic receptors; assay: In vitro binding (off-target receptors) at 10 μM; settings: hemigalactarate salt
[13] = test system: cultured human peripheral blood lymphocytes; assay: chromosome aberration assay; type: cell-based; settings: in vitro
Description: as §1

[14] = Single dose pharmacokinetics, monkey; type: in vivo, Cyno monkey; settings: plasma; for AUC(0-t): t = 168 h, read-out: AUC0-1; for AUC(0-inf): read-out: AUCinf, unchanged parent
Description: In a monkey study, [^14C]-Compound 1 was given at 10 mg/kg orally or 5 mg/kg by iv infusion. Oral bioavailability in this study was about 30%.

[15] = biological target: T6, ganglionic receptor (α3β4) (Homo sapiens, UniProt P30926+P32297); assay: Receptor function ganglionic receptors (human), SH-SY5Y and IMR-32 cells; type: cell-based
T6 construct: endogenous in cells
T6 sequence (P32297 32-505): as the sequence (P32297 32-505) above
T6 sequence (P30926 22-498): as the sequence (P30926 22-498) above

[16] = Single dose pharmacokinetics, mouse; type: in vivo, Swiss mouse; settings: for half-life: po, 1 mg/kg
[17] = cynomolgus monkey, Cyno monkey, 5 mg/kg [14C]-Compound 1, 20-minute intravenous
[18] = cynomolgus monkey, Cyno monkey, 10 mg/kg [14C]-Compound 1, oral
[19] = Human ganglion-type (a3b4*), Ca++ Flux
[20] = plasma, Swiss mouse, 1.0 mg/kg Compound 1, oral

C(=C\[C@H]1CCNC1)/c1cncnc1 [Compound 1, (R)-5-((E)-2-pyrrolidin-3-ylvinyl)pyrimidine]
changes in physical exam, blood or urine laboratory measurements or ECG measurements ([1]; 108 human subjects, oral doses 5 mg to 200 mg): No clinical noteworthy changes
adverse events reported ([1]; all studies, oral doses 5 mg to 200 mg): typically GI-related
changes in ECG measurements ([1]; clinical studies to date): no noteworthy changes
mutagenicity, micronucleus test (mouse lymphoma cells): negative
Ki (a4b4): 0.68 µM
Emax ([2]; Ca++ Flux): 35%
Emax ([2]; Rb+ Flux, single point): 19%
Activity at rat ganglion receptors ([2]; PC-12 cells): receptors in PC-12 cells was low (19%).
EC50 ([2]; Rat ganglion-type (a3b4*), Ca++ Flux): 53 µM
exposure parameters (Cmax and AUC0-24) vs dose ([3]; Days 1 and 15 (2-week), Days 1, 29 and 91 (13-week)): increased roughly in proportion to dose
Tmax ([3]; both sexes, rat, plasma, oral 30-300 mg/kg/day, 2-week and 13-week studies): 0.5 to 2 h
exposure in females compared with males ([3]; both studies): generally higher
respiratory rate, minute volume, peak inspiratory flow (respiratory parameters; 100 mg/kg po): Transient adverse effects; also recorded: shortlasting increase in respiratory rate,
respiratory parameters (respiratory parameters; 10 and 30 mg/kg po): 10 and 30 mg/kg did not cause changes
tidal volume and index of airway resistance (respiratory parameters; 5 hour observation period): There were no changes in tidal volume and
NOEL, respiratory (respiratory parameters; po): The NOEL was 30 mg/kg.
Ki [4]: > 10 µM
binding affinity [5]: sites (51%).
arterial pressure, heart rate, ECG parameters, body temperature [6]: no noteworthy changes
arterial pressure, heart rate, ECG parameters, body temperature ([6]; listed as TC6499): monkeys did not induce notable effects
Ki (human α3β2): 0.027 µM
Ki ([7]; Rat a4b2, assay and tissue type not given): 0.034 µM
Ki ([7]; [3H]-S-nicotine, rat brain cortical membranes): 0.027 µM
Ki (human α7): 15 µM
interaction between Compound 1 and nicotine in behavioral sensitization (behavioral sensitization; 30 mg/kg, 15 days cross-challenge): daily for 15 days indicated no interaction
behavioral sensitization (motor activity) (behavioral sensitization; Compound 1 3, 10, 30 mg/kg po): no noteworthy changes; also recorded: not associated with behavioral
activity at high and low sensitivity alpha4beta2-containing NNR subtypes [8]: agonist activity
effect on body temperature [9]: no noteworthy changes; also recorded: Compound 1 had no effect on body
Ki ([10]; Rat a7, assay and tissue type not given): 3.5 µM
Ki ([10]; [3H]-MLA, rat brain hippocampal membranes): 5.5 µM and 5.53 µM
solubility ([11]; 0.1N HCl, simulated gastric fluid): > 10000 µg/mL
solubility ([11]; Water (pH 5.9)): > 10000 µg/mL
solubility ([11]; aqueous buffer, 0.1M citrate buffer (pH 4.0)): > 10000 µg/mL
solubility ([11]; aqueous buffer, 0.1M phosphate buffer (pH 6.8)): > 10000 µg/mL
binding affinity [12]: nicotinic receptors (100%), the only
mutagenicity, chromosome aberration assay [13]: negative
Tmax [14, 17]: 0.333 h
AUC(0-t) [14, 17]: 1530 ng·h/mL
half-life ([14]; cynomolgus monkey, Cyno monkey, 5 mg/kg [14C]-Compound 1, 20-minute intravenous, read-out: t1/2 (converted)): 2.1 h
Tmax [14, 18]: 2.25 h
AUC(0-t) [14, 18]: 942 ng·h/mL
bioavailability ([14]; cynomolgus monkey, Cyno monkey, 10 mg/kg [14C]-Compound 1, oral, read-out: F (oral bioavailability)): 31.1%
half-life ([14]; cynomolgus monkey, Cyno monkey, 10 mg/kg [14C]-Compound 1, oral, read-out: t1/2 (converted)): 1.9 h
AUC(0-inf) ([14]; cynomolgus, 5 mg/kg iv infusion): 1530 ng·h/mL
Cmax ([14]; cynomolgus, Cyno monkey, 5 mg/kg [14C]-Compound 1, 20-minute intravenous): 2030 ng/mL
Cmax ([14]; cynomolgus, Cyno monkey, 10 mg/kg [14C]-Compound 1, oral): 254 ng/mL
bioavailability ([14]; cynomolgus, oral, [14C]-Compound 1, 10 mg/kg orally vs 5 mg/kg iv infusion, read-out: Oral bioavailability): ~30%
AUC(0-inf) ([14]; cynomolgus, po, 10 mg/kg orally): 969 ng·h/mL
half-life ([14]; cynomolgus, po, 10 mg/kg orally, read-out: half-life, unchanged parent (converted)): 1.9 h
EC50 [15, 19]: 13 µM
Emax [15, 19]: 150%
EC50 ([15]; IMR-32 cells): 22 µM
EC50 ([15]; Rb+ Flux, IMR cells): 22 µM
Emax ([15]; Rb+ Flux, IMR cells): 79%
EC50 ([15]; Rb+ Flux, SHSY5Y cells): 18 µM
EC50 ([15]; SH-SY5Y cells): 18 µM
Emax vs. nicotine ([15]; SH-SY5Y cells): 60%
Emax ([15]; SH-SY5Y, Rb+ Flux, SHSY5Y cells): 60%
agonist type ([15]; α3β4 nicotine receptor subtype): full agonist
Kp ([16]; Swiss, mouse, brain, oral, 1 mg/kg orally, read-out: brain exposure as share of plasma exposure): ~0.3
half-life ([16]; Swiss, mouse, plasma, 1 mg/kg orally, read-out: terminal elimination half-life (converted)): ~0.5 h
half-life ([16]; Swiss, mouse, plasma, Swiss mouse, 1.0 mg/kg Compound 1, oral, read-out: t1/2 (converted)): 0.5 h
Cmax [16, 20]: 15 ng/mL
Tmax [16, 20]: 0.167 h
AUC(0-t) ([16]; plasma, Swiss mouse, 1.0 mg/kg Compound 1, oral, t = 25 h, read-out: AUC0-1): 10.1 ng·h/mL
